Assay results reported in PubChem BioAssay AID1918954 (Molecular Pharmacology Branch, DTP, NCI, 2023).
pIC50: −log10 of the molar value. Several values for one entry are separate records, joined by “and”; a condition that tells them apart may be missing. Equal entries are not always repeated.

Tested on: MDA-MB-468 complex spheroids with HUVEC/MSC, viability
Experiment: Anticancer human tumor MDA-MB-468 cell line growth inhibition;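 also: spheroids exposed to agents for seven days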;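 as to viability, T/C: 100% = DMSO vehicle control viability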
Conditions: for viability, T/C: stronger effect = lower value
In short: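 Multicellular complex spheroids of tumor cells with human endothelial cells (HUVEC) and mesenchymal stem cells; the LSD1 inhibitor iadademstat was combined with standard-of-care or investigational agents. Top concentration at or near clinical Cmax, half-log dilutions; final DMSO ≤0.25%.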

[1] = curve of first compound, second compound 0.1 µM
[2] = curve of first compound, second compound 0.316 µM
[3] = curve of first compound, second compound 1 µM
[4] = curve of first compound, second compound 3.16 µM
[5] = curve of first compound, second compound 10 µM
[6] = second compound 0.1 µM, first compound 0.00949 µM
[7] = second compound 0.1 µM, first compound 0.03 µM
[8] = second compound 0.1 µM, first compound 0.0949 µM
[9] = second compound 0.1 µM, first compound 0.3 µM
[10] = second compound 0.316 µM, first compound 0.00949 µM
[11] = second compound 0.316 µM, first compound 0.03 µM
[12] = second compound 0.316 µM, first compound 0.0949 µM
[13] = second compound 0.316 µM, first compound 0.3 µM
[14] = second compound 1 µM, first compound 0.00949 µM
[15] = second compound 1 µM, first compound 0.03 µM
[16] = second compound 1 µM, first compound 0.0949 µM
[17] = second compound 1 µM, first compound 0.3 µM
[18] = second compound 3.16 µM, first compound 0.00949 µM
[19] = second compound 3.16 µM, first compound 0.03 µM
[20] = second compound 3.16 µM, first compound 0.0949 µM
[21] = second compound 3.16 µM, first compound 0.3 µM
[22] = second compound 10 µM, first compound 0.00949 µM
[23] = second compound 10 µM, first compound 0.03 µM
[24] = second compound 10 µM, first compound 0.0949 µM
[25] = second compound 10 µM, first compound 0.3 µM
[26] = second compound 0.1 µM, first compound 0.949 µM
[27] = second compound 0.1 µM, first compound 3 µM
[28] = second compound 0.316 µM, first compound 0.949 µM
[29] = second compound 0.316 µM, first compound 3 µM
[30] = second compound 1 µM, first compound 0.949 µM
[31] = second compound 1 µM, first compound 3 µM
[32] = second compound 3.16 µM, first compound 0.949 µM
[33] = second compound 3.16 µM, first compound 3 µM
[34] = second compound 10 µM, first compound 0.949 µM
[35] = second compound 10 µM, first compound 3 µM

Row | SMILES | pIC50 [1] | pIC50 [2] | pIC50 [3] | pIC50 [4] | pIC50 [5] | viability, T/C [6] [%] | viability, T/C [7] [%] | viability, T/C [8] [%] | viability, T/C [9] [%] | viability, T/C [10] [%] | viability, T/C [11] [%] | viability, T/C [12] [%] | viability, T/C [13] [%] | viability, T/C [14] [%] | viability, T/C [15] [%] | viability, T/C [16] [%] | viability, T/C [17] [%] | viability, T/C [18] [%] | viability, T/C [19] [%] | viability, T/C [20] [%] | other results
1 | Nc1ncn(C2CC(O)C(CO)S2)c(=O)n1 (configuration not stated) + NC1CCC(NC2CC2c2ccccc2)CC1 | 7.05 | 7.04 | 7.09 | 7.18 | 7.94 | 76.8 | 59.6 | 54.5 | 35 | 72.8 | 71.3 | 45.6 | 29.8 | 76.1 | 64.1 | 48.5 | 38.1 | 76 | 67.5 | 41.8 | viability, T/C (second compound 0.1 µM, first compound 0.000949 µM): 90.8%; viability, T/C (second compound 0.1 µM, first compound 0.003 µM): 95.7%; viability, T/C (second compound 0.316 µM, first compound 0.000949 µM): 89.7%; viability, T/C (second compound 0.316 µM, first compound 0.003 µM): 80%; viability, T/C (second compound 1 µM, first compound 0.000949 µM): 76.5%; viability, T/C (second compound 1 µM, first compound 0.003 µM): 87.8%; viability, T/C (second compound 3.16 µM, first compound 0.000949 µM): 81.2%; viability, T/C (second compound 3.16 µM, first compound 0.003 µM): 68.3%; viability, T/C [21]: 33.7%; viability, T/C (second compound 10 µM, first compound 0.000949 µM): 64.6%; viability, T/C (second compound 10 µM, first compound 0.003 µM): 53%; viability, T/C [22]: 54.5%; viability, T/C [23]: 43%; viability, T/C [24]: 40%; viability, T/C [25]: 31.1%
2 | COc1cc(Nc2ncc3c(n2)-c2ccc(Cl)cc2C(c2c(F)cccc2OC)=NC3)ccc1C(=O)O | – | – | – | – | – | – | – | – | – | – | – | – | – | – | – | – | – | – | – | – | viability, T/C (compound 0.00316 µM): 69.6% and 17.2%; viability, T/C (compound 0.01 µM): 28.3% and 7.92%; viability, T/C (compound 0.0316 µM): 17.4% and 5.89%; viability, T/C (compound 0.1 µM): 8.67% and 6.08%; viability, T/C (compound 0.316 µM): 7.8% and 4.66%; viability, T/C (compound 1 µM): 7.38% and 3%; pIC50 (curve of compound): 8.26 and > 8.50
3 | Nc1ccccc1NC(=O)c1ccc(CNC(=O)OCc2cccnc2)cc1 + NC1CCC(NC2CC2c2ccccc2)CC1 | 6.77 | 6.85 | 6.90 | 6.84 | 6.95 | 97.4 | 106 | 87.2 | 13.9 | 102 | 103 | 67.7 | 14.6 | 89.1 | 90.3 | 61.2 | 15.9 | 80.8 | 83.7 | 69.6 | viability, T/C [26]: 3.13%; viability, T/C [27]: 1.48%; viability, T/C [28]: 3.32%; viability, T/C [29]: 0.9%; viability, T/C [30]: 2.93%; viability, T/C [31]: 1.42%; viability, T/C [21]: 14.9%; viability, T/C [32]: 3.07%; viability, T/C [33]: 1.04%; viability, T/C [22]: 59.9%; viability, T/C [23]: 61%; viability, T/C [24]: 56%; viability, T/C [25]: 13.4%; viability, T/C [34]: 3.05%; viability, T/C [35]: 1.52%
4 | COc1cc(C2c3cc4c(cc3C(OC3OC5COC(C)OC5C(O)C3O)C3COC(=O)C23)OCO4)cc(OC)c1O (configuration not stated) + NC1CCC(NC2CC2c2ccccc2)CC1 | 7.00 | 7.03 | 7.05 | 7.12 | 7.28 | 83.6 | 91.3 | 51.6 | 13.8 | 82.6 | 72.3 | 51.2 | 14.3 | 90.7 | 77.2 | 50.8 | 13.8 | 67.6 | 68.2 | 45.9 | viability, T/C [26]: 10.8%; viability, T/C [27]: 8.8%; viability, T/C [28]: 12.5%; viability, T/C [29]: 9.23%; viability, T/C [30]: 12.8%; viability, T/C [31]: 8.57%; viability, T/C [21]: 15.5%; viability, T/C [32]: 15.3%; viability, T/C [33]: 8.59%; viability, T/C [22]: 55.5%; viability, T/C [23]: 64.5%; viability, T/C [24]: 39.5%; viability, T/C [25]: 17.1%; viability, T/C [34]: 17.2%; viability, T/C [35]: 11%
